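In this assay, cells in 96-well plates receive the compound at five concentrations for 48 hours. Endpoints are linearly interpolated between the surrounding concentrations. GI50 is the concentration that inhibits growth by half.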 Activity calls are given as the source filed them. Cut-off read from the data, not from the text of the source: active = GI50 up to about 1.1 µM and inactive = higher.
What was measured:
Test in all cases: DTP human tumour cell line panel, 48 h
HOP-62 = test system: HOP-62
RXF 393 = test system: RXF 393
U-251 = test system: U-251
786-0 = test system: 786-0
HCT-116 = test system: HCT-116
SF-268 = test system: SF-268
RPMI-8226 = test system: RPMI-8226
SF-295 = test system: SF-295
SNB-75 = test system: SNB-75
OVCAR-5 = test system: OVCAR-5
SNB-78 = test system: SNB-78
ACHN = test system: ACHN
A549 = test system: A549
UACC-257 = test system: UACC-257
SK-MEL-2 = test system: SK-MEL-2
DMS-273 = test system: DMS-273
OVCAR-4 = test system: OVCAR-4
SK-MEL-5 = test system: SK-MEL-5
COLO 205 = test system: COLO 205
SR = test system: SR
K562 = test system: K562
SW-620 = test system: SW-620
HCC 2998 = test system: HCC 2998
KM12 = test system: KM12
XF498 = test system: XF498
HT-29 = test system: HT-29
HL-60 = test system: HL-60
KM-20L2 = test system: KM-20L2
CCRF-CEM = test system: CCRF-CEM
HCT-15 = test system: HCT-15
OVCAR-3 = test system: OVCAR-3
TK-10 = test system: TK-10
Malme-3M = test system: Malme-3M
UACC-62 = test system: UACC-62
MOLT-4 = test system: MOLT-4
SK-OV-3 = test system: SK-OV-3
SK-MEL-28 = test system: SK-MEL-28
A498 = test system: A498
SNB-19 = test system: SNB-19
M14 = test system: M14
NCI-H522 = test system: NCI-H522
IGROV-1 = test system: IGROV-1
NCI-H226 = test system: NCI-H226
DLD-1 = test system: DLD-1
NCI-H23 = test system: NCI-H23
EKVX = test system: EKVX
LOX IMVI = test system: LOX IMVI
HOP-18 = test system: HOP-18
OVCAR-8 = test system: OVCAR-8
LXFL 529 = test system: LXFL 529
SF-539 = test system: SF-539
UO-31 = test system: UO-31
NCI-H460 = test system: NCI-H460
SN12C = test system: SN12C
M19-MEL = test system: M19-MEL
CAKI-1 = test system: CAKI-1
HOP-92 = test system: HOP-92
DMS-114 = test system: DMS-114

Measured: GI50

COC(=O)N/N=C(/CCN1CCCC1)CC(c1ccccc1)c1c(O)c2ccccc2oc1=O (stereo not given)
> 100 µM: HCT-15
inactive: HOP-62 > 100 µM | RXF 393 > 100 µM | U-251 > 100 µM | 786-0 > 100 µM | HCT-116 > 100 µM | SF-268 > 100 µM | RPMI-8226 > 100 µM | SF-295 > 100 µM | SNB-75 30.1 µM | OVCAR-5 > 100 µM | SNB-78 > 100 µM | ACHN > 100 µM | A549 > 100 µM | UACC-257 > 100 µM | SK-MEL-2 > 100 µM | DMS-273 > 100 µM | OVCAR-4 > 100 µM | SK-MEL-5 > 100 µM | COLO 205 > 100 µM | SR > 100 µM | K562 > 100 µM | SW-620 > 100 µM | HCC 2998 > 100 µM | KM12 > 100 µM | XF498 38.7 µM | HT-29 > 100 µM | HL-60 > 100 µM | KM-20L2 > 100 µM | CCRF-CEM > 100 µM | OVCAR-3 > 100 µM | TK-10 > 100 µM | Malme-3M > 100 µM | UACC-62 72.8 µM | MOLT-4 > 100 µM | SK-OV-3 > 100 µM | SK-MEL-28 > 100 µM | A498 > 100 µM | SNB-19 > 100 µM | M14 > 100 µM | NCI-H522 > 100 µM | IGROV-1 > 100 µM | NCI-H226 > 100 µM | DLD-1 > 100 µM | NCI-H23 > 100 µM | EKVX > 100 µM | LOX IMVI > 100 µM | HOP-18 > 100 µM | OVCAR-8 > 100 µM | LXFL 529 > 100 µM | SF-539 > 100 µM | UO-31 61.4 µM | NCI-H460 > 100 µM | SN12C > 100 µM | M19-MEL > 100 µM | CAKI-1 > 100 µM

CCOC(=O)CN(Cn1cncn1)Cn1cncn1
22 µM: HCT-15
inactive: HOP-62 > 100 µM | RXF 393 14.8 µM | U-251 17.9 µM | 786-0 58.6 µM | HCT-116 30.8 µM | RPMI-8226 55.2 µM | SF-295 39.4 µM | SNB-75 20.6 µM | OVCAR-5 > 100 µM | SNB-78 91 µM | ACHN 36.6 µM | A549 40.6 µM | UACC-257 17.6 µM | SK-MEL-2 38.2 µM | DMS-273 20.5 µM | OVCAR-4 46.8 µM | SK-MEL-5 24.2 µM | COLO 205 36.9 µM | K562 40.6 µM | SW-620 24.1 µM | HCC 2998 33.2 µM | KM12 20.2 µM | XF498 20.4 µM | HT-29 34.6 µM | HL-60 35.7 µM | KM-20L2 22.5 µM | CCRF-CEM 47 µM | OVCAR-3 19.6 µM | TK-10 50.7 µM | Malme-3M 52 µM | UACC-62 33.3 µM | MOLT-4 45.4 µM | SK-OV-3 > 100 µM | SK-MEL-28 18.4 µM | M14 > 10 µM | IGROV-1 > 100 µM | NCI-H226 28.1 µM | DLD-1 34.9 µM | EKVX 43.8 µM | LOX IMVI 21 µM | HOP-18 32.8 µM | OVCAR-8 24.7 µM | LXFL 529 40.2 µM | UO-31 > 100 µM | HOP-92 > 100 µM | NCI-H460 24.9 µM | SN12C 29.4 µM | M19-MEL 38.7 µM | CAKI-1 56 µM

COc1cc(C2c3cc4c(cc3[C@H](NS(C)(=O)=O)C3COC(=O)[C@H]23)OCO4)cc(OC)c1OC (stereo not given in full)
0.448 µM: HCT-15
inactive: OVCAR-5 > 100 µM | SK-MEL-2 > 100 µM | TK-10 > 100 µM | Malme-3M > 100 µM | HOP-18 > 100 µM | UO-31 9.35 µM
active: HOP-62 0.177 µM | U-251 0.327 µM | DMS-114 0.226 µM | 786-0 0.471 µM | SF-268 0.778 µM | RPMI-8226 0.394 µM | ACHN 0.51 µM | UACC-257 0.612 µM | DMS-273 0.297 µM | COLO 205 0.186 µM | SR 0.251 µM | K562 0.415 µM | HCC 2998 0.435 µM | KM12 0.108 µM | XF498 0.56 µM | HT-29 0.34 µM | HL-60 0.253 µM | KM-20L2 0.162 µM | CCRF-CEM 0.444 µM | UACC-62 0.162 µM | MOLT-4 0.418 µM | M14 0.426 µM | NCI-H522 0.0671 µM | NCI-H226 0.177 µM | DLD-1 0.592 µM | NCI-H23 0.223 µM | LOX IMVI 0.419 µM | OVCAR-8 0.439 µM | LXFL 529 0.731 µM | SF-539 0.165 µM | NCI-H460 0.615 µM | SN12C 0.482 µM
